Test results published in patent US20250171438A1 (Agios Pharmaceuticals, Inc., priority 2022, published 2025).

Molecular target: T1, human PAH with the R408W mutation (Homo sapiens, UniProt P00439, R408W)
T1 construct: expressed in transfected cells
T1 sequence (P00439 1-452 R408W): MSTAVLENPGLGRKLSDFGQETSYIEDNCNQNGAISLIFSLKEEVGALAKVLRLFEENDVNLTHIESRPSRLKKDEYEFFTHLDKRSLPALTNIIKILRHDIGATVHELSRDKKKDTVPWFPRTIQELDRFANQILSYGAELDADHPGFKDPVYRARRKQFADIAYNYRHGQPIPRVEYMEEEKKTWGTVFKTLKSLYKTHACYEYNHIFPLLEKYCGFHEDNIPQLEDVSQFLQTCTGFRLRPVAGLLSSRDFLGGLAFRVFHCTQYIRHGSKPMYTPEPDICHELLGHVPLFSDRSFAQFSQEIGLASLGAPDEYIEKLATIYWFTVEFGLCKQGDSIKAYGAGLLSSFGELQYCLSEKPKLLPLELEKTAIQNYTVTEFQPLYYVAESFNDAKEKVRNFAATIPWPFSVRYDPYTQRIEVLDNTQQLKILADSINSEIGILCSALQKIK
Test: Cell Based Phenylalanine Flux Assay
Conditions: A375 cells expressing human R408W PAH; 24 hrs compound incubation; 13C-Tyrosine by LC-MS; average where tested multiple times; read-out: AC50

Row | AC50 [µM] | SMILES
1 | < 0.5 | O=C(c1nnc(-c2cnn(CC(F)F)c2)o1)N1CCc2[nH]cnc2[C@H]1c1nc2c(F)cccc2s1 [Example 1882, (S)-(5-(1-(2,2-difluoroethyl)-1H-pyrazol-4-yl)-1,3,4-oxadiazol-2-yl)(4-(4-fluorobenzo[d]thiazol-2-yl)-6,7-dihydro-1H-imidazo[4,5-c]pyridin-5(4H)-yl)methanone]
2 | < 0.5 | Cn1cc(-c2nnc(C(=O)N3CCc4[nH]cnc4[C@H]3c3nc4ccccc4s3)o2)c(C(F)(F)F)n1 [Example 1883]
3 | 1 to 5 | Cn1cc(-c2nnc(C(=O)N3CCc4[nH]cnc4[C@@H]3c3nc4ccccc4s3)o2)c(C(F)(F)F)n1 [Example 1884, (R)-(4-(benzo[d]thiazol-2-yl)-6,7-dihydro-1H-imidazo[4,5-c]pyridin-5(4H)-yl)(5-(1-methyl-3-(trifluoromethyl)-1H-pyrazol-4-yl)-1,3,4-oxadiazol-2-yl)methanone]
4 | 1 to 5 | O=C(c1nnc(-c2cc[nH]n2)o1)N1CCc2[nH]cnc2[C@@H]1c1nc2c(F)cccc2s1 [Example 1885, (R)-(5-(1H-pyrazol-3-yl)-1,3,4-oxadiazol-2-yl)(4-(4-fluorobenzo[d]thiazol-2-yl)-6,7-dihydro-1H-imidazo[4,5-c]pyridin-5(4H)-yl)methanone]
5 | 0.5 to 1 | O=C(c1nnc(-c2cc[nH]n2)o1)N1CCc2[nH]cnc2[C@H]1c1nc2c(F)cccc2s1 [Example 1886]
6 | 1 to 5 | O=C(c1nnc(-c2ccn(C(F)F)n2)o1)N1CCc2[nH]cnc2[C@@H]1c1nc2c(F)cccc2s1 [Example 1887, (R)-(5-(1-(difluoromethyl)-1H-pyrazol-3-yl)-1,3,4-oxadiazol-2-yl)(4-(4-fluorobenzo[d]thiazol-2-yl)-6,7-dihydro-1H-imidazo[4,5-c]pyridin-5(4H)-yl)methanone]
7 | < 0.5 | O=C(c1nnc(-c2ccn(C(F)F)n2)o1)N1CCc2[nH]cnc2[C@H]1c1nc2c(F)cccc2s1 [Example 1888, (S)-(5-(1-(difluoromethyl)-1H-pyrazol-3-yl)-1,3,4-oxadiazol-2-yl)(4-(4-fluorobenzo[d]thiazol-2-yl)-6,7-dihydro-1H-imidazo[4,5-c]pyridin-5(4H)-yl)methanone]
8 | < 0.5 | O=C(c1nnc(-c2cc(C(F)(F)F)ccn2)o1)N1CCc2[nH]cnc2[C@H]1c1nc2ccccc2s1 [Example 1889, [(4S)-4-(1,3-benzothiazol-2-yl)-1,4,6,7-tetrahydroimidazo[4,5-c]pyridin-5-yl]-[5-[4-(trifluoromethyl)-2-pyridyl]-1,3,4-oxadiazol-2-yl]methanone]
9 | 1 to 5 | O=C(c1nnc(-c2cc(C(F)(F)F)ccn2)o1)N1CCc2[nH]cnc2[C@@H]1c1nc2ccccc2s1 [Example 1890, [(4R)-4-(1,3-benzothiazol-2-yl)-1,4,6,7-tetrahydroimidazo[4,5-c]pyridin-5-yl]-[5-[4-(trifluoromethyl)-2-pyridyl]-1,3,4-oxadiazol-2-yl]methanone]
10 | 1 to 5 | O=C(c1nnc(C2CC(F)(F)C2)o1)N1CCc2[nH]cnc2[C@@H]1c1nc2c(F)cccc2s1 [Example 1891, (R)-(5-(3,3-difluorocyclobutyl)-1,3,4-oxadiazol-2-yl)(4-(4-fluorobenzo[d]thiazol-2-yl)-6,7-dihydro-1H-imidazo[4,5-c]pyridin-5(4H)-yl)methanone]
11 | 0.5 to 1 | O=C(c1nnc(C2CC(F)(F)C2)o1)N1CCc2[nH]cnc2[C@H]1c1nc2c(F)cccc2s1 [Example 1892, (S)-(5-(3,3-difluorocyclobutyl)-1,3,4-oxadiazol-2-yl)(4-(4-fluorobenzo[d]thiazol-2-yl)-6,7-dihydro-1H-imidazo[4,5-c]pyridin-5(4H)-yl)methanone]
12 | 0.5 to 1 | CC(C)(C)OC(=O)N1CC(c2nnc(C(=O)N3CCc4[nH]cnc4[C@H]3c3nc4ccccc4s3)o2)C1 [Example 1893, (S)-tert-butyl 3-(5-(4-(benzo[d]thiazol-2-yl)-4,5,6,7-tetrahydro-1H-imidazo[4,5-c]pyridine-5-carbonyl)-1,3,4-oxadiazol-2-yl)azetidine-1-carboxylate]
13 | 1 to 5 | CC(C)(C)OC(=O)N1CC(c2nnc(C(=O)N3CCc4[nH]cnc4[C@@H]3c3nc4ccccc4s3)o2)C1 [Example 1894, (R)-tert-butyl 3-(5-(4-(benzo[d]thiazol-2-yl)-4,5,6,7-tetrahydro-1H-imidazo[4,5-c]pyridine-5-carbonyl)-1,3,4-oxadiazol-2-yl)azetidine-1-carboxylate]
14 | 0.5 to 1 | O=C(c1cnn(-c2ccccn2)c1Cl)N1CCc2[nH]cnc2[C@H]1c1nc2ccccc2s1 [Example 1895]
15 | 1 to 5 | O=C(c1cnn(-c2ccccn2)c1Cl)N1CCc2[nH]cnc2[C@@H]1c1nc2ccccc2s1 [Example 1896, (R)-(4-(benzo[d]thiazol-2-yl)-6,7-dihydro-1H-imidazo[4,5-c]pyridin-5(4H)-yl)(5-chloro-1-(pyridin-2-yl)-1H-pyrazol-4-yl)methanone]
16 | < 0.5 | CC(C)(O)c1nc(Br)c(C(=O)N2CCc3[nH]cnc3[C@H]2c2nc3c(F)cccc3s2)o1 [Example 1897, (S)-(4-bromo-2-(2-hydroxypropan-2-yl)oxazol-5-yl)(4-(4-fluorobenzo[d]thiazol-2-yl)-6,7-dihydro-1H-imidazo[4,5-c]pyridin-5(4H)-yl)methanone]
17 | 1 to 5 | CC(C)(O)c1nc(Br)c(C(=O)N2CCc3[nH]cnc3[C@@H]2c2nc3c(F)cccc3s2)o1 [Example 1898, (R)-(4-bromo-2-(2-hydroxypropan-2-yl)oxazol-5-yl)(4-(4-fluorobenzo[d]thiazol-2-yl)-6,7-dihydro-1H-imidazo[4,5-c]pyridin-5(4H)-yl)methanone]
18 | < 0.5 | O=C(c1nnc(-c2cc[nH]n2)o1)N1CCc2[nH]cnc2[C@H]1c1nc2ccccc2s1 [Example 1899]
19 | 1 to 5 | O=C(c1nnc(-c2cc[nH]n2)o1)N1CCc2[nH]cnc2[C@@H]1c1nc2ccccc2s1 [Example 1900, (R)-(5-(1H-pyrazol-3-yl)-1,3,4-oxadiazol-2-yl)(4-(benzo[d]thiazol-2-yl)-6,7-dihydro-1H-imidazo[4,5-c]pyridin-5(4H)-yl)methanone]
20 | 0.5 to 1 | O=C(c1nnc(-c2ncccc2F)o1)N1CCc2[nH]cnc2[C@@H]1c1nc2c(F)cccc2s1 [Example 1901, (R)-(4-(4-fluorobenzo[d]thiazol-2-yl)-6,7-dihydro-1H-imidazo[4,5-c]pyridin-5(4H)-yl)(5-(3-fluoropyridin-2-yl)-1,3,4-oxadiazol-2-yl)methanone]
21 | < 0.5 | O=C(c1nnc(-c2ncccc2F)o1)N1CCc2[nH]cnc2[C@H]1c1nc2c(F)cccc2s1 [Example 1902, (S)-(4-(4-fluorobenzo[d]thiazol-2-yl)-6,7-dihydro-1H-imidazo[4,5-c]pyridin-5(4H)-yl)(5-(3-fluoropyridin-2-yl)-1,3,4-oxadiazol-2-yl)methanone]
22 | 0.5 to 1 | Cc1ccc(-c2nnc(C(=O)N3CCc4[nH]cnc4[C@@H]3c3nc4c(F)cccc4s3)o2)nc1 [Example 1903, (R)-(4-(4-fluorobenzo[d]thiazol-2-yl)-6,7-dihydro-1H-imidazo[4,5-c]pyridin-5(4H)-yl)(5-(5-methylpyridin-2-yl)-1,3,4-oxadiazol-2-yl)methanone]
23 | < 0.5 | Cc1ccc(-c2nnc(C(=O)N3CCc4[nH]cnc4[C@H]3c3nc4c(F)cccc4s3)o2)nc1 [Example 1904, (S)-(4-(4-fluorobenzo[d]thiazol-2-yl)-6,7-dihydro-1H-imidazo[4,5-c]pyridin-5(4H)-yl)(5-(5-methylpyridin-2-yl)-1,3,4-oxadiazol-2-yl)methanone]
24 | 0.5 to 1 | O=C(c1nnc(-c2cc(C(F)(F)F)ccn2)o1)N1CCc2[nH]cnc2[C@@H]1c1nc2c(F)cccc2s1 [Example 1905, (R)-(4-(4-fluorobenzo[d]thiazol-2-yl)-6,7-dihydro-1H-imidazo[4,5-c]pyridin-5(4H)-yl)(5-(4-(trifluoromethyl)pyridin-2-yl)-1,3,4-oxadiazol-2-yl)methanone]
25 | < 0.5 | O=C(c1nnc(-c2cc(C(F)(F)F)ccn2)o1)N1CCc2[nH]cnc2[C@H]1c1nc2c(F)cccc2s1 [Example 1906, (S)-(4-(4-fluorobenzo[d]thiazol-2-yl)-6,7-dihydro-1H-imidazo[4,5-c]pyridin-5(4H)-yl)(5-(4-(trifluoromethyl)pyridin-2-yl)-1,3,4-oxadiazol-2-yl)methanone]
26 | 0.5 to 1 | O=C(c1cn(-c2ccccn2)nc1Cl)N1CCc2[nH]cnc2[C@H]1c1nc2ccccc2s1 [Example 1907]
27 | 1 to 5 | O=C(c1cn(-c2ccccn2)nc1Cl)N1CCc2[nH]cnc2[C@@H]1c1nc2ccccc2s1 [Example 1908, (R)-(4-(benzo[d]thiazol-2-yl)-6,7-dihydro-1H-imidazo[4,5-c]pyridin-5(4H)-yl)(3-chloro-1-(pyridin-2-yl)-1H-pyrazol-4-yl)methanone]
28 | 0.5 to 1 | O=C(C1CN(c2ncccc2F)C1)N1CCc2[nH]cnc2[C@H]1c1nc2ccccc2s1 [Example 1909]
29 | > 5 | O=C(C1CN(c2ncccc2F)C1)N1CCc2[nH]cnc2[C@@H]1c1nc2ccccc2s1 [Example 1910, (R)-(4-(benzo[d]thiazol-2-yl)-6,7-dihydro-1H-imidazo[4,5-c]pyridin-5(4H)-yl)(1-(3-fluoropyridin-2-yl)azetidin-3-yl)methanone]
30 | 0.5 to 1 | Cc1nc([C@H](C)O)oc1C(=O)N1CCc2[nH]cnc2[C@H]1c1nc2c(F)cccc2s1 [Example 1911, ((S)-4-(4-fluorobenzo[d]thiazol-2-yl)-6,7-dihydro-1H-imidazo[4,5-c]pyridin-5(4H)-yl)(2-((S)-1-hydroxyethyl)-4-methyloxazol-5-yl)methanone]
